Values quoted from earlier work as cited in US8846104B2, “Pharmaceutical compositions for the deterrence and/or prevention of abuse” (priority 2006, dated 2014).

Tested on: mu over delta sites

O=C1CC[C@@]2(O)[C@H]3Cc4ccc(O)c5c4[C@@]2(CCN3CC2CC2)[C@H]1O5 [naltrexone]
blocking action, site preference: strong preferential blocking action against mu over delta sites
